In experiment [1] the test system is glucose-loaded SD rats. As to the kind of experiment: OGTT (oral glucose tolerance test), Test Example 3. Format: in vivo, rat. To be noted: 3 mg/kg orally 16 hours before glucose load; male SD rats; compared to vehicle. As for the experimental part: Vehicle (0.5% methylcellulose solution), or Compound 1, Compound A, or Compound B (3 mg/kg each) suspended in a 0.5% methylcellulose solution was orally administered in 5 mL/kg to an about 4-hour-fasted male SD rat (8-week old, Nihon Charles River K.K., 5 cases for each group).
Statistical analyses were based on Dunnett’s multiple group test. The significance level was two-sided 5%.

The test system of the next experiment is ⅚-kidney-removed rats. As to the kind of experiment: Assessment of renal protective effect 2 (⅚-kidney-removed rats). The experiment is classed as in vivo, rat. To be noted: 2 mg/kg/day mixed with feed, vs vehicle-administered group. As for the experimental part:
7-Week old male Wistar rats (Japan SLC, Inc.) were treated by removing ⅔ of the left kidney under isoflurane anesthesia and then removing the whole right kidney one week later to prepare ⅚-kidney-removed rats. Compound 1 (2 mg/kg/day) mixed with feed was orally administered to the rats from the age of 9 weeks. As a normal control, male Wistar rats at the same age were set as a sham group. […] For statistical analysis, Student’s test was conducted between the vehicle-administered group and the Compound 1-administered group. […] For statistical analysis, Student’s test or Aspin-Welch was conducted.

Another experiment deals with T1, human SGLT1 (Homo sapiens, UniProt P13866).
T1 construct: expressed in transfected cells; PCR template pCMV6-hSGLT1 (OriGene)
T1 sequence (P13866 1-664): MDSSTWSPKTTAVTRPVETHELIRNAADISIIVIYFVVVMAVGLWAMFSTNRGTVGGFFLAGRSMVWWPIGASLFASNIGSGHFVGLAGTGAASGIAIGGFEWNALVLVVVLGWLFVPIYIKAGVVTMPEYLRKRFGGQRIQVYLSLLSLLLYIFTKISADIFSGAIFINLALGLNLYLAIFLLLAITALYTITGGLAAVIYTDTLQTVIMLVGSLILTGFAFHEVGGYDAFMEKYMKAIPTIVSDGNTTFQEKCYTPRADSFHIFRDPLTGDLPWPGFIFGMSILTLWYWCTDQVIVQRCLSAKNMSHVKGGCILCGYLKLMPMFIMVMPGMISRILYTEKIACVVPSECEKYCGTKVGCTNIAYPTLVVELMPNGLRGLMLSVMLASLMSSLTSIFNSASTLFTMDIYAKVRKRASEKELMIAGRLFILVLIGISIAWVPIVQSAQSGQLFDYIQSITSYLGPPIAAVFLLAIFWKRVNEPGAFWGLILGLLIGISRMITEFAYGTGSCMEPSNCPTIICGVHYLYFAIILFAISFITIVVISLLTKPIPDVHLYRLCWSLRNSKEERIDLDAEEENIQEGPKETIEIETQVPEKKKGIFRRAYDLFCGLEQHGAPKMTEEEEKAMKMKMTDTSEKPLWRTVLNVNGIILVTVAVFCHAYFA
Description: Assessment of SGLT1 inhibitory activity (14C-AMG uptake in human SGLT1-stably-expressing CHO-K1 cells). Format: cell-based. As for the experimental part:
SGLT1 inhibitory activities of test compounds (IC50 values) were calculated based on the amount of intracellular uptake of labelled α-methyl-D-glucopyranoside (^14C-AMG) transported by SGLT1.
A DNA fragment containing human SGLT1 was amplified by PCR (Polymerase Chain Reaction) using pCMV6-hSGLT1 (OriGene) as a template. In the human SGLT1, NheI recognition and cleavage sequence was added to the upstream of Kozac consensus sequence derived from a vector, and a stop codon, TAG, and SalI recognition and cleavage sequence were added to the immediate downstream of the protein-translating region of human SGLT1. […]
Human SGLT1-stably-expressing cell lines were seeded at 5 x 10^4 cells/well on BioCoat™ Poly-D-Lysine 96 well plate with Lid (Becton, Dickinson and Company) and cultured at 37° C. under 5% CO2 overnight. […] In the assessment for the uptake ability of 14C-AMG, the total amount of the cell lysate was transferred to OptiPlate 96 (Perkin-Elmer) with 100 µL/well of MicroScint-40 (Perkin-Elmer) dispensed and ^14 C of CPM was measured with TOPCOUNT NXT (Perkin-Elmer).
Data was calculated by deducting the average value of CPM for blank well from the average value of CPM for each well treated. An inhibition rate for each test compound in each concentration was calculated from the following equation: […]

For experiment [2], the system named is glucose-loaded SD rats. Description: OGTT (oral glucose tolerance test), Test Example 2. The experiment is classed as in vivo, rat. To be noted: 1, 3, or 10 mg/kg orally 16 hours before glucose load; male SD rats; compared to vehicle. On the procedure:
Vehicle (0.5% methylcellulose solution) or Compound 1 (1, 3, or 10 mg/kg) suspended in a 0.5% methylcellulose solution was orally administered in 5 mL/kg to an about 4-hour-fasted male SD rat (8-week old, Nihon Charles River K.K., 6 cases for each group).
Statistical analyses were based on Steel’s multiple test. The significance level was two-sided 5%.

In a further experiment the test system is SDT fatty rats. Description: Assessment of renal protective effect (GFR in SDT fatty rats). The experiment is classed as in vivo, rat. To be noted: 2 mg/kg orally once a day, 16 weeks; male SDT fatty rats. On the procedure:
Vehicle (0.5% methyl cellulose solution), Compound 1 (2 mg/kg), or dapagliflozin (0.3 mg/kg) was orally administered once a day to male SDT fatty rats (7-week old, CLEA Japan, Inc.); and as a normal control, vehicle was orally administered once a day to male SD rats (7-week old, CLEA Japan, Inc.). 16 Weeks after the administration, GFR (mL/min/100 g B.W.) was measured with a transdermal GFR monitor (MediBeacon). For statistical analysis, Student’s test was conducted between the vehicle-administered group of SD rats and the vehicle-administered group of SDT fatty rats. Dunnett’s multiple test was conducted for the Compound 1 and dapagliflozin groups to the vehicle group of SDT fatty rats. The significance level was two-sided 5%.

The results in this text go back to patent US20230210831A1, “CHRONIC KIDNEY DISEASE TREATMENT OR PREVENTION METHOD” (Japan Tobacco Inc., priority 2019, published 2023).

`C[C@H]1C(=O)NC[C@@H]1C(=O)Nc1cc(-c2cc(F)cc(OC(C)(C)C)c2)n(C(F)(F)F)n1` [Compound 1, (3R,4R)-N-(5-(3-(tert-butoxy)-5-fluorophenyl)-1-(trifluoromethyl)-1H-pyrazol-3-yl)-4-methyl-5-oxopyrrolidine-3-carboxamide]: the “blood glucose level after the glucose load (Δ AUC to 120 minutes, % of Vehicle)” value with glucose-loaded SD rats [1] and with glucose-loaded SD rats [2] was “significantly reduced” in each case. Besides, the “protein quantity in the urine” value in the experiment with ⅚-kidney-removed rats is listed as “lower than those of the vehicle-administered group”. Further, the urea nitrogen level entry with ⅚-kidney-removed rats is listed as “significantly lower than those of the vehicle-administered group”. Besides, the SGLT1 inhibitory activity result on human SGLT1 is listed as “confirmed to have the SGLT1 inhibitory activity”. In addition, the GFR entry in the experiment with SDT fatty rats is “inhibited the increase of GFR”.
